Like-named read-outs stand apart in the source and are kept apart here. A value given as a limit tells only on which side of the number the result lay.

One test has as its target T1, human PRMT6 (Homo sapiens, UniProt Q96LA8).
T1 construct: Flag-PRMT6-His; made in house; host or cells: HEK 293F cells (BacMam baculovirus)
Nature of the test: PRMT6 Biochemical Assay (3H-SAM Flashplate, peptide substrate). The source says:
S-adenosylmethionine (SAM), S-adenosylhomocysteine (SAH), bicine, Tween20, dimethylsulfoxide (DMSO), bovine skin gelatin (BSG), sodium butyrate and Tris(2-carboxyethyl)phosphine hydrochloride solution (TCEP) were purchased from Sigma-Aldrich at the highest level of purity possible. ^3H-SAM was purchase from American Radiolabeled Chemicals with a specific activity of 80 Ci/mmol. 384-well streptavidin Flashplates were purchased from PerkinElmer.
Peptide representative of human histone H4 residues 36-50 was synthesized with an N-terminal linker-affinity tag motif and a C-terminal amide cap by 21st Century Biochemicals.
The amplified gene was subcloned into pFastBacMam (Viva Biotech).
Recombinant baculovirus were generated according to Bac-to-Bac kit instructions (Life Technologies). […] Infections were carried out at 37° C. for 48 hours, harvested by centrifugation, and stored at −80° C. for purification.
Column was washed with 20 mM imidazole in the same buffer and Flag-PRMT6-His was eluted with 150 mM imidazole. […] Flag-PRMT6-His was eluted with 200 ug/ml FLAG peptide in the same buffer. Pooled fractions were dialysed in 20 mM Tris, 150 mM NaCl, 10% glycerol and 5 mM β-mercaptoethanol, pH 7.8.
General Procedure for PRMT6 Enzyme Assays on Peptide Substrates.
(§1) The assays were all performed in a buffer consisting of 20 mM Bicine (pH=7.6), 1 mM TCEP, 0.005% BSG, and 0.002% Tween 20, prepared on the day of use. […] DMSO (1 ul) was added to Columns 11, 12, 23, 24, rows A-H for the maximum signal control and 1 ul of SAH, a known product and inhibitor of PRMT6, was added to columns 11, 12, 23, 24, rows I-P for the minimum signal control. A cocktail (40 ul) containing the PRMT6 enzyme was added by Multidrop Combi (Thermo-Fisher). The compounds were allowed to incubate with PRMT6 for 30 min at room temperature, then a cocktail (10 ul) containing SAM and peptide was added to initiate the reaction (final volume=51 ul). […] The assays were stopped by the addition of non-radiolabeled SAM (10 ul) to a final concentration of 400 uM, which dilutes the ^3H-SAM to a level where its incorporation into the peptide substrate is no longer detectable. 50 ul of the reaction in the 384-well polypropylene plate was then transferred to a 384-well Flashplate and the biotinylated peptides were allowed to bind to the streptavidin surface for at least 1 hour before being washed once with 0.1% Tween20 in a Biotek ELx405 plate washer. The plates were then read in a PerkinElmer TopCount plate reader to measure the quantity of ^3H-labeled peptide bound to the Flashplate surface, measured as disintegrations per minute (dpm) or alternatively, referred to as counts per minute (cpm).
(§2) Where dpm=disintegrations per minute, cmpd=signal in assay well, and min and max are the respective minimum and maximum signal controls.
(§3) Where top and bottom are the normally allowed to float, but may be fixed at 100 or 0 respectively in a 3-parameter fit. The Hill Coefficient normally allowed to float but may also be fixed at 1 in a 3-parameter fit. Y is the % inhibition and X is the compound concentration.

The test system of test [1] is mono-methyl arginine in RKO cells. Nature of the test: RKO Methylation Assay, In Cell Western (ICW) for mono-methyl arginine and DNA content. In kind it is cell-based. The settings on record: Homo sapiens, RKO, 72 h, RKO cells, 72 hours, mono-methyl arginine, percent activation. The text has this:
RKO adherent cells were purchased from ATCC (American Type Culture Collection), Manassas, Va., USA. DMEM/Glutamax medium, penicillin-streptomycin, heat inactivated fetal bovine serum, 0.05% trypsin and D-PBS were purchased from Life Technologies, Grand Island, N.Y., USA. Odyssey blocking buffer, 800CW goat anti-rabbit IgG (H+L) antibody, and Licor Odyssey infrared scanner were purchased from Licor Biosciences, Lincoln, Nebr., USA. Mono-methyl arginine antibody was purchased from Cell Signaling Technology, Danvers, Mass., USA. Methanol was purchased from VWR, Franklin, Mass., USA. 10% Tween 20 was purchased from KPL, Inc., Gaithersburg, Md., USA. DRAQ5 was purchased from Biostatus Limited, Leicestershire, UK.
RKO adherent cells were maintained in growth medium (DMEM/Glutamax medium supplemented with 10% v/v heat inactivated fetal bovine serum and 100 units/mL penicillin-streptomycin) and cultured at 37° C. under 5% CO2.
Cell Treatment, in Cell Western (ICW) for Detection of Mono-Methyl Arginine and DNA Content.
RKO cells were seeded in assay medium at a concentration of 20,000 cells per mL to a poly-D-lysine coated 384 well culture plate (BD Biosciences 356697) with 50 μL per well. Compound (100 nL) from a 96-well source plate was added directly to 384 well cell plate. Plates were incubated at 37° C., 5% CO2 for 72 hours. After three days of incubation, plates were brought to room temperature outside of the incubator for ten minutes and blotted on paper towels to remove cell media. 50 μL of ice cold 100% methanol was added directly to each well and incubated for 30 min at room temperature. After 30 min, plates were transferred to a Biotek EL406 plate washer and washed 2 times with 100 μL per well of wash buffer (1×PBS). Next 60 μL per well of Odyssey blocking buffer (Odyssey Buffer with 0.1% Tween 20 (v/v)) were added to each plate and incubated 1 hour at room temperature. Blocking buffer was removed and 20 μL per well of primary antibody was added (mono-methyl arginine diluted 1:200 in Odyssey buffer with 0.1% Tween 20 (v/v)) and plates were incubated overnight (16 hours) at 4° C. Plates were washed 5 times with 100 μL per well of wash buffer. Next 20 μL per well of secondary antibody was added (1:200 800CW goat anti-rabbit IgG (H+L) antibody, 1:1000 DRAQ5 (Biostatus limited) in Odyssey buffer with 0.1% Tween 20 (v/v)) and incubated for 1 hour at room temperature. The plates were washed 5 times with 100 μL per well wash buffer then 2 times with 100 μL per well of water. Plates were allowed to dry at room temperature then imaged on the Licor Odyssey machine which measures integrated intensity at 700 nm and 800 nm wavelengths. Both 700 and 800 channels were scanned.
First, the ratio for each well was determined by:
Each plate included fourteen control wells of DMSO only treatment (minimum activation) as well as fourteen control wells for maximum activation treated with 20 μM of a reference compound. The average of the ratio values for each control type was calculated and used to determine the percent activation for each test well in the plate. Reference compound was serially diluted three-fold in DMSO for a total of nine test concentrations, beginning at 20 μM. Percent activation was determined and EC30 curves were generated using triplicate wells per concentration of compound.

The target of a further test is T2, human PRMT1 (Homo sapiens, UniProt Q99873).
T2 construct: GST-tagged PRMT1; made in house; host or cells: High Five insect cells (baculovirus)
T2 sequence (Q99873 with tags, fused parts or gaps): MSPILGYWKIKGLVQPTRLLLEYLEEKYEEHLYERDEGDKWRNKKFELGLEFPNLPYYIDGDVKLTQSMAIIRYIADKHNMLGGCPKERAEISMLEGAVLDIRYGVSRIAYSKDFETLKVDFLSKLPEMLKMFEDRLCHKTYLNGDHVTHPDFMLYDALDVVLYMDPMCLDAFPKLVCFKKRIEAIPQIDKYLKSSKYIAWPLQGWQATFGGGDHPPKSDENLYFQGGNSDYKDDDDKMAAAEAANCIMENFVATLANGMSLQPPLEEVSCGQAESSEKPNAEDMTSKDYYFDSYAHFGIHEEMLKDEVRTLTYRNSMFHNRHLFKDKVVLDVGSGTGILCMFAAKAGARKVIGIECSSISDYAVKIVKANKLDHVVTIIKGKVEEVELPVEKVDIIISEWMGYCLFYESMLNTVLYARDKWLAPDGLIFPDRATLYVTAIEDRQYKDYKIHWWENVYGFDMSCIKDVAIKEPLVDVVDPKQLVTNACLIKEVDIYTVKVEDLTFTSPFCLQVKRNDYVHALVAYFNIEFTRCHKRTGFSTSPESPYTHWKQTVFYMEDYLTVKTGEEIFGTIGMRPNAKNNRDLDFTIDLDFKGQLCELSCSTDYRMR
Nature of the test: PRMT1 Biochemical Assay (3H-SAM Flashplate, peptide substrate). The settings on record: single experiment or average of multiple experiments.
Excerpt: S-adenosylmethionine (SAM), S-adenosylhomocysteine (SAH), bicine, Tween20, dimethylsulfoxide (DMSO), bovine skin gelatin (BSG), and Tris(2-carboxyethyl)phosphine hydrochloride solution (TCEP) were purchased from Sigma-Aldrich at the highest level of purity possible. ^3H-SAM was purchase from American Radiolabeled Chemicals with a specific activity of 80 Ci/mmol. 384-well streptavidin Flashplates were purchased from PerkinElmer.
Recombinant baculovirus were generated according to Bac-to-Bac kit instructions (Life Technologies). […] Infections were carried out at 27° C. for 48 hours, harvested by centrifugation, and stored at −80° C. for purification.
GST-tagged PRMT1 was eluted with 50 mM Tris, 2 mM glutathione, pH 7.8, dialysed in buffer A and concentrated to 1 mg/mL.
General Procedure for PRMT1 Enzyme Assays on Peptide Substrates.
as §1, with “PRMT1,” for “PRMT6,”, “PRMT1” for “PRMT6”, “300” for “400”
as §2, §3

Setting [2] is: Biochemical IC50 PRMT6, single experiment or average of multiple experiments.
The mark [3] stands for this setting: single experiment or average of multiple experiments, read-out: EC30 (In Cell Western data, Numerical).
Setting [4] is: single experiment or average of multiple experiments, read-out: Biochemical IC50 PRMT6.
Where [5] appears, read: class symbols, read-out: EC30 (In Cell Western data).

T1 sequence (Q96LA8 with tags, fused parts or gaps): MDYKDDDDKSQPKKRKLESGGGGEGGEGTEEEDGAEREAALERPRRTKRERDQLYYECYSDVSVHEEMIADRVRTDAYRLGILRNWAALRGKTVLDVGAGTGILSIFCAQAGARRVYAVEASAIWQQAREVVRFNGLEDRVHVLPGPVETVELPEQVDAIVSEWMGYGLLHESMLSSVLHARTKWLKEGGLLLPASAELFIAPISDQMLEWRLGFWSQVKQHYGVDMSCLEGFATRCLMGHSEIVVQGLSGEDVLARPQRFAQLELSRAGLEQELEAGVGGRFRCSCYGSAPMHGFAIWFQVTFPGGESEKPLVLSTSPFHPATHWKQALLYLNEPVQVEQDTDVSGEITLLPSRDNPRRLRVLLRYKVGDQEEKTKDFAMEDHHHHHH

Turning to `CN(CCN)Cc1cnn(CC2COC2)c1-c1ccc(F)cc1` [Compound 80], the IC50 at human PRMT6 (Biochemical IC50 PRMT6) and on human PRMT6 (setting [2]) was more than 10000 nM throughout. Moreover, in test [1] (setting [3]), the EC30 is more than 20000 nM.
Take `CN(CCN)Cc1cn(CC2COC2)nc1-c1ccc(F)cc1` [Compound 79]: the IC50 on human PRMT6 (Biochemical IC50 PRMT6) and at human PRMT6 (setting [2]) was more than 10000 nM throughout. For the same molecule, the EC30 in test [1] (setting [3]) was more than 20000 nM.
In the case of `CNCCN(C)Cc1cnn(C)c1-c1ccc(OC(C)C)c(Cl)c1` [Compound 220, N^1-((5-(3-chloro-4-isopropoxyphenyl)-1-methyl-1H-pyrazol-4-yl)methyl)-N^1,N^2-dimethylethane-1,2-diamine], the IC50 at human PRMT6 (setting [4]) stood at 23.1 nM. For the same molecule, in test [1] (setting [3]), the EC30 was 211 nM.
With `COCCn1cnc(-c2ccc(C#N)cc2)c1CN(C)CCN` [Compound 223], the IC50 against human PRMT6 (Biochemical IC50 PRMT6) and against human PRMT6 (setting [2]) was more than 10000 nM in each case. The EC30 in test [1] (setting [3]) was more than 20000 nM.
`CNCCN(C)Cc1c[nH]nc1-c1ccc(Oc2cccc(C(=O)N(C)C)c2)cc1` [Compound 264] gave a half-maximal inhibitory concentration (IC50) at human PRMT6 (setting [2]) of 3.18 nM. Besides, the EC30 in test [1] (setting [3]) was determined as 3520 nM.
In turn, `CNCCN(C)Cc1c[nH]nc1-c1ccc(OC(C)C)cc1` [Compound 19, N^1-((3-(4-isopropoxyphenyl)-1H-pyrazol-4-yl)methyl)-N^1,N^2-dimethylethane-1,2-diamine] yielded an IC50 against human PRMT6 (setting [2]) of 10.6 nM. Besides, in test [1] (setting [3]), the 30% effect concentration (EC30) was determined as 67 nM.
For the molecule `CN(CCN)Cc1c(-c2ccc(C#N)cc2)cnn1C` [Compound 84], the IC50 against human PRMT6 (Biochemical IC50 PRMT6) and at human PRMT6 (setting [2]) was more than 10000 nM throughout.
As for `CCC(CO)Oc1ccc(-c2n[nH]cc2CN(C)CCNC)cc1` (stereo not drawn) [Compound 287], the IC50 against human PRMT6 (Biochemical IC50 PRMT6) was less than 100 nM; on human PRMT6 (setting [4]) it was 24.8 nM. Besides, the EC30 in test [1] (setting [5]) was less than 3000 nM; in test [1] (setting [3]), 202 nM.
Regarding `CNCCN(C)Cc1cn[nH]c1-c1ccc(OC(C)C)c(Cl)c1` [Compound 201], on human PRMT6 (setting [2]), the IC50 was found to be 9.24 nM. Also, the EC30 in test [1] (setting [3]) was 255 nM.
`CN(CCN1CCCC1)Cc1c[nH]nc1-c1ccc(C#N)cc1` [Compound 139]: the concentration for half-maximal inhibition (IC50) against human PRMT6 (Biochemical IC50 PRMT6) and against human PRMT6 (setting [2]) was more than 10000 nM throughout. Besides, in test [1] (setting [3]), the EC30 is more than 20000 nM.
Regarding `COCCn1cc(CN(C)CCN(C)C)c(-c2ccc(F)cc2)n1` [Compound 61], the concentration for half-maximal inhibition (IC50) at human PRMT6 (Biochemical IC50 PRMT6) and against human PRMT6 (setting [2]) was more than 10000 nM in each case.
In the case of `CCOc1ccc(-c2n[nH]cc2CN(C)CCNC)cc1` [Compound 294], the IC50 against human PRMT6 (Biochemical IC50 PRMT6) is less than 100 nM; against human PRMT6 (setting [2]) it was 24.6 nM. Further, the figures for the 30% effect concentration (EC30) in test [1] (setting [5]) and in test [1] (setting [3]) were less than 3000 nM and 224 nM, respectively.
In the case of `CN(CCN)Cc1cn(CC(O)CO)nc1-c1ccc(F)cc1` (stereo not drawn) [Compound 76], the 50% inhibitory concentration (IC50) at human PRMT1 was found to be 6390 nM; against human PRMT6 (setting [2]), 2730 nM.
As to `CN(CCN)Cc1cn(CC2CCOCC2)nc1-c1ccc(F)cc1` [Compound 128], the values for the IC50 on human PRMT1 and against human PRMT6 (setting [2]) were 6500 nM and 2370 nM, respectively.
On human PRMT6 (setting [2]), `CNCCN(C)Cc1n[nH]cc1-c1ccc(Oc2ccccc2C(=O)NC)cc1` [Compound 278] had an IC50 of 5.17 nM. Besides, in test [1] (setting [3]), the 30% effect concentration (EC30) amounted to 8230 nM.
On to `CN(CCN)Cc1c[nH]nc1-c1ccc(N2CCN(C(=O)Cc3ccccc3)CC2)cc1` [Compound 190], for which, at human PRMT6 (setting [4]), the half-inhibitory concentration (IC50) worked out at 20.1 nM. Moreover, the 30% effect concentration (EC30) in test [1] (setting [3]) worked out at 8390 nM.
With `CN(CCN)Cc1c[nH]nc1-c1ccc(Oc2ccccc2)cc1` [Compound 200], the EC30 in test [1] (setting [3]) is 596 nM.
Turning to `CNCCN(C)Cc1c[nH]nc1-c1ccc(Oc2ccccc2)c(C#N)c1` [Compound 234], the IC50 against human PRMT1 worked out at 7.75 nM; on human PRMT6 (setting [2]), 4.74 nM.
At human PRMT6 (setting [2]), `COCCn1ncc(CN(C)CCN(C)C)c1-c1ccc(F)cc1` [Compound 64] displayed an IC50 of 1570 nM.
In the case of `CNCCN(C)Cc1n[nH]cc1-c1ccc(Oc2cccc(C(=O)N(C)C)c2)cc1` [Compound 269], at human PRMT6 (setting [2]), the IC50 was found to be 2.73 nM. Also, in test [1] (setting [3]), the EC30 is 14900 nM.
For `CN(CCN)Cc1c[nH]nc1-c1ccc(OCCCN2CCOCC2)cc1` [Compound 186] the same measures were 13.3 nM and 12800 nM.

The values are drawn from patent US9776972B2, “Pyrazole derivatives as arginine methyltransferase inhibitors and uses thereof” (priority 2013, dated 2017).
